Where only a bound is given, the exact number is not on record here.

One assay deals with PI3K delta (Homo sapiens (Human), UniProt O00329). Briefly: Enzymatic PI3K delta isoform inhibition (lipid kinase activity, Kinase-Glo luminescence). The conditions noted are these: Enzymatic assay. It is filed as biochemical. The method in brief:
(§1)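 IC50s derive from 4-parameter logistic fits of % inhibition across 8 concentrations (usually 10 to 0.003 μM). Lipid kinase reaction: PI3K (10 nM) plus phosphatidylinositol (5 μg/mL) started with 2 μM ATP, stopped near 50% ATP depletion; leftover ATP quantified by Kinase-Glo luminescence.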

The target of the next assay is PI3K alpha (Homo sapiens (Human), UniProt P42336). Briefly: Enzymatic PI3K alpha isoform inhibition (lipid kinase activity, Kinase-Glo luminescence). The class given is biochemical. The conditions noted are these: Enzymatic assay. The procedure, abridged: as §1
Chain of PI3K alpha (P42336 other isoform, or with tags, fused parts or gaps): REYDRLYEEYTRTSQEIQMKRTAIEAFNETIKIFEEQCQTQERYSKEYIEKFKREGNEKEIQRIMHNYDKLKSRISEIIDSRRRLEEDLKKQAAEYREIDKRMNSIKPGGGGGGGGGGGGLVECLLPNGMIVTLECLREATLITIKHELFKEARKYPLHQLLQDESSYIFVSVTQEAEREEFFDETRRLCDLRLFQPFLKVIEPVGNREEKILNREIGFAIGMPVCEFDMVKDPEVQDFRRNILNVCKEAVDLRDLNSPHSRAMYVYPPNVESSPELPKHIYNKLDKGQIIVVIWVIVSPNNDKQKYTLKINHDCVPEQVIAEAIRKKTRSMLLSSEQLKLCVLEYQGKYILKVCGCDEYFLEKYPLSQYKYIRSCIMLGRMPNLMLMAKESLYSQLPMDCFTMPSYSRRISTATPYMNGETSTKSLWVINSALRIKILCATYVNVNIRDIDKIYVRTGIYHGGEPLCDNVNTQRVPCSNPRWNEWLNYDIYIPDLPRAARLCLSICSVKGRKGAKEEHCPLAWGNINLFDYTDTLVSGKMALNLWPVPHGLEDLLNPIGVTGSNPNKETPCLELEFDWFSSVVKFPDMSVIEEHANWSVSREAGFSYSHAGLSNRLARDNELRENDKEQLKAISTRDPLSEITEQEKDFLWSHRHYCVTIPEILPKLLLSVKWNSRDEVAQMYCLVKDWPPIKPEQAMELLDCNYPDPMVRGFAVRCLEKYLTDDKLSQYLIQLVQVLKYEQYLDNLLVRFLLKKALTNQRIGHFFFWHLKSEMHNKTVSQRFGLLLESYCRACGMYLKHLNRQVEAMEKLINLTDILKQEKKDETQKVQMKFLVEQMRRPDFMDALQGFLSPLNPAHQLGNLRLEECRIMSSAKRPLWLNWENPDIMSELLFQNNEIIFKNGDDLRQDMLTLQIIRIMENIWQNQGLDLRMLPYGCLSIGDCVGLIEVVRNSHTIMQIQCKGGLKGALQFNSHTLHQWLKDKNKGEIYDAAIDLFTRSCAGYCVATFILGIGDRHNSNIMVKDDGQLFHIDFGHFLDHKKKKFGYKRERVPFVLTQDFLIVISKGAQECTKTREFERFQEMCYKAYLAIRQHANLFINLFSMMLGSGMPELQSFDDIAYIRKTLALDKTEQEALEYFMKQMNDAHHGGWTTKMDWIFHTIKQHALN
For orientation: In Kinase-Glo more light means more ATP remaining.

Chain of PI3K delta (O00329 other isoform, or with tags, fused parts or gaps linker GGGGGG): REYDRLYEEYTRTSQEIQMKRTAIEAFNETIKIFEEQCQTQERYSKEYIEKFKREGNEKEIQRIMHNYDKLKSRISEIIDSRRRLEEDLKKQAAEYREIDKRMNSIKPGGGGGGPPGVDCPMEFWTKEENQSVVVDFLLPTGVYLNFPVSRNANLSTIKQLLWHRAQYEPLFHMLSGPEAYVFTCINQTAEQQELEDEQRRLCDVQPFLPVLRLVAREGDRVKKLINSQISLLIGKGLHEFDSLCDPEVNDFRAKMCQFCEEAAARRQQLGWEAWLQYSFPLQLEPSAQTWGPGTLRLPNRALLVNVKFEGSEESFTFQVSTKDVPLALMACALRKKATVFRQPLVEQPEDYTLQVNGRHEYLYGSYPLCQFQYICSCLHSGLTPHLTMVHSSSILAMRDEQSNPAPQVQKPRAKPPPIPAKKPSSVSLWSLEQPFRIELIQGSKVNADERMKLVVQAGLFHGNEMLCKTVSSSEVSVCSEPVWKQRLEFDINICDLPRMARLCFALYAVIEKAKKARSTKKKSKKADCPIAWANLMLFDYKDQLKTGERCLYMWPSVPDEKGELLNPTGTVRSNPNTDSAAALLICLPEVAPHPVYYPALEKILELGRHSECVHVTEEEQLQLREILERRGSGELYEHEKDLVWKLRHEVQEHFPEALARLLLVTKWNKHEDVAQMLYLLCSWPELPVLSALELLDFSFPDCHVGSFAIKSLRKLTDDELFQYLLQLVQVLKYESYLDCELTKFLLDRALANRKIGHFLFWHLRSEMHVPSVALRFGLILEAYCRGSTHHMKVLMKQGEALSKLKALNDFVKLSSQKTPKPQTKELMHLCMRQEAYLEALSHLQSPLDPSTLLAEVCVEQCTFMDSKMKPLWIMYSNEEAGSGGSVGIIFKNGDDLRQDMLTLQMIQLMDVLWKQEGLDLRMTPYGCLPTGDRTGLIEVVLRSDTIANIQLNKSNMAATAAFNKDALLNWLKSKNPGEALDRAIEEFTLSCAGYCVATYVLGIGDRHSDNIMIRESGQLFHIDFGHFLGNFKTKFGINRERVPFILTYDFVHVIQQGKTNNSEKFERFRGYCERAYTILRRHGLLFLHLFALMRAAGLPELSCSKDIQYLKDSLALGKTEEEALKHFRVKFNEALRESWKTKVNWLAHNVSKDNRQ

As for `CS(=O)(=O)c1ncc(N2CCOc3ccc(O[C@H]4CCN(C(=O)[C@@H]5CCOC5)C4)cc32)cc1C(F)F` [Example B75, {(S)-3-[4-(5-Difluoromethyl-6-methanesulfonyl-pyridin-3-yl)-3,4-dihydro-2H-benzo[1,4]oxazin-6-yloxy]-pyrrolidin-1-yl}-(R)-tetrahydro-furan-3-yl-methanone], the IC50 – broadly, the concentration at which inhibition is half-maximal – on PI3K delta is 11 nM; against PI3K alpha, 211 nM.

Turning to `COc1ncc(N2CCOc3ccc(O[C@H]4CCN(C(=O)C5CCS(=O)(=O)C5)C4)cc32)cc1Cl` (stereo partly drawn) [Example B105, {(S)-3-[4-(5-Chloro-6-methoxy-pyridin-3-yl)-3,4-dihydro-2H-benzo[1,4]oxazin-6-yloxy]-pyrrolidin-1-yl}-(1,1-dioxo-tetrahydro-1lambda*6*-thiophen-3-yl)-methanone], the values for the IC50 at PI3K delta and against PI3K alpha were 20 nM and 762 nM, respectively.

Regarding `CCC(=O)N1CC[C@H](Oc2ccc3c(c2)N(c2cncc(S(C)(=O)=O)c2)CCO3)C1` [Example A37, 1-{(S)-3-[4-(5-Methanesulfonyl-pyridin-3-yl)-3,4-dihydro-2H-benzo[1,4]oxazin-6-yloxy]-pyrrolidin-1-yl}-propan-1-one], the IC50 amounted to 78 nM on PI3K delta and 370 nM against PI3K alpha.

With `CS(=O)(=O)c1ccc(N2CCOc3ccc(O[C@H]4CCN(C(=O)C5CCOCC5)C4)cc32)cn1` [Example A43, {(S)-3-[4-(6-Methanesulfonyl-pyridin-3-yl)-3,4-dihydro-2H-benzo[1,4]oxazin-6-yloxy]-pyrrolidin-1-yl}-(tetrahydro-pyran-4-yl)-methanone], the IC50 on PI3K delta amounted to 54 nM; at PI3K alpha, 4690 nM.

On to `COc1ncc(N2CCOc3cnc(O[C@H]4CCN(C(=O)C5CCOCC5)C4)cc32)cc1C#N` [Example F4, 2-Methoxy-5-{7-[(S)-1-(tetrahydro-pyran-4-carbonyl)-pyrrolidin-3-yloxy]-2,3-dihydro-pyrido[3,4-b][1,4]oxazin-1-yl}-nicotinonitrile], for which the results for the IC50 on PI3K delta and against PI3K alpha were 3 nM and 577 nM, respectively.

In the case of `COc1ncc(N2CCOc3ccc(O[C@H]4CCN(C(=O)[C@H]5CCNC5)C4)cc32)cc1C#N` [Example D39, 2-methoxy-5-{6-[(S)-1-((S)-pyrrolidine-3-carbonyl)-pyrrolidin-3-yloxy]-2,3-dihydro-benzo[1,4]oxazin-4-yl}-nicotinonitrile], the figures for the IC50 against PI3K delta and against PI3K alpha were 36 nM and 987 nM, respectively.

For `COc1ccc(N2CCOc3ccc(O[C@H]4CCN(C(=O)C5CCOCC5)C4)cc32)cn1` [Example D30, {(S)-3-[4-(6-Methoxy-pyridin-3-yl)-3,4-dihydro-2H-benzo[1,4]oxazin-6-yloxy]-pyrrolidin-1-yl}-(tetrahydro-pyran-4-yl)-methanone], the IC50 at PI3K delta worked out at 127 nM; at PI3K alpha it was 5150 nM.

As for `CCC(=O)N1CC[C@H](Oc2ccc3c(c2)N(c2cnc(OC)c(C)c2)CCO3)C1` [Example A13, 1-{(S)-3-[4-(6-Methoxy-5-methyl-pyridin-3-yl)-3,4-dihydro-2H-benzo[1,4]oxazin-6-yloxy]-pyrrolidin-1-yl}-propan-1-one], the IC50 on PI3K delta came to 5 nM; on PI3K alpha, 292 nM.

As to `COc1ncc(N2CCOc3ccc(O[C@H]4CCN(C(=O)C5CCS(=O)(=O)CC5)C4)c(F)c32)cc1C(F)F` [Example I2], the IC50 at PI3K delta stood at 5 nM; against PI3K alpha it was 308 nM.

For the molecule `COc1ncc(N2CCOc3ccc(O[C@H]4CCN(C(=O)C5CCS(=O)(=O)C5)C4)cc32)cc1C` (single isomer, unassigned) [Example B28, (1,1-Dioxo-tetrahydro-1lambda*6*-thiophen-3-yl)-{(S)-3-[4-(6-methoxy-5-methyl-pyridin-3-yl)-3,4-dihydro-2H-benzo[1,4]oxazin-6-yloxy]-pyrrolidin-1-yl}-methanone], the figures for the IC50 at PI3K delta and against PI3K alpha were 12 nM and 788 nM, respectively.

Consider `COc1ncc(N2CCOc3ccc(O[C@H]4CCN(C(=O)c5oc(C)nc5C)C4)cc32)cc1C#N` [Example C20, 5-{6-[(S)-1-(2,4-Dimethyl-oxazole-5-carbonyl)-pyrrolidin-3-yloxy]-2,3-dihydro-benzo[1,4]oxazin-4-yl}-2-methoxy-nicotinonitrile], for which the IC50 against PI3K delta came to 6 nM; at PI3K alpha, 193 nM.

As to `Cc1cc(N2CCOc3ccc(O[C@H]4CCN(C(=O)CCO)C4)cc32)cnc1Cl` [Example B61, 1-{(S)-3-[4-(6-Chloro-5-methyl-pyridin-3-yl)-3,4-dihydro-2H-benzo[1,4]oxazin-6-yloxy]-pyrrolidin-1-yl}-3-hydroxy-propan-1-one], the IC50 against PI3K delta came to 37 nM; on PI3K alpha it was 732 nM.

Turning to `COCC(=O)N1CC[C@H](Oc2cc3c(cn2)OCCN3c2cnc(OC)c(C(F)F)c2)C1` [Example F9, 1-{(S)-3-[1-(5-Difluoromethyl-6-methoxy-pyridin-3-yl)-2,3-dihydro-1H-pyrido[3,4-b][1,4]oxazin-7-yloxy]-pyrrolidin-1-yl}-2-methoxy-ethanone], the figures for the IC50 on PI3K delta and against PI3K alpha were under 3 nM and 28 nM, respectively.

For `COc1ncc(N2CCOc3ccc(O[C@H]4CCN(C(=O)CC(C)C)C4)cc32)cc1C#N` [Example D10, 2-Methoxy-5-{6-[(S)-1-(3-methyl-butyryl)-pyrrolidin-3-yloxy]-2,3-dihydro-benzo[1,4]oxazin-4-yl}-nicotinonitrile], the values for the IC50 at PI3K delta and against PI3K alpha were 62 nM and 385 nM, respectively.

Regarding `COc1cc(N2CCOc3ccc(O[C@H]4CCN(C(=O)C5CCOCC5)C4)cc32)cnc1OC` [Example B38, {(S)-3-[4-(5,6-Dimethoxy-pyridin-3-yl)-3,4-dihydro-2H-benzo[1,4]oxazin-6-yloxy]-pyrrolidin-1-yl}-(tetrahydro-pyran-4-yl)-methanone], the IC50 against PI3K delta came out at 3 nM; on PI3K alpha, 166 nM.

Turning to `Cc1cc(N2CCOc3ccc(O[C@H]4CCN(C(=O)C5CCCOC5)C4)cc32)cnc1S(C)(=O)=O` (stereo partly drawn) [Example B42, {(S)-3-[4-(6-Methanesulfonyl-5-methyl-pyridin-3-yl)-3,4-dihydro-2H-benzo[1,4]oxazin-6-yloxy]-pyrrolidin-1-yl}-(tetrahydro-pyran-3-yl)-methanone], the figures for the IC50 on PI3K delta and against PI3K alpha were 33 nM and 502 nM, respectively.

Consider `COc1ncc(N2CCOc3ccc(O[C@H]4CCN(C(=O)C5CCS(=O)(=O)CC5)C4)c(F)c32)cc1C` [Example I1, (1,1-Dioxo-hexahydro-1lambda*6*-thiopyran-4-yl)-{(S)-3-[5-fluoro-4-(6-methoxy-5-methyl-pyridin-3-yl)-3,4-dihydro-2H-benzo[1,4]oxazin-6-yloxy]-pyrrolidin-1-yl}-methanone], for which the figures for the IC50 at PI3K delta and against PI3K alpha were 18 nM and 842 nM, respectively.

On to `COc1ncc(N2CCOc3cnc(O[C@H]4CCN(C(=O)C5CCS(=O)(=O)CC5)C4)cc32)cc1C#N` [Example F13, 5-{7-[(S)-1-(1,1-Dioxo-hexahydro-1lambda*6*-thiopyran-4-carbonyl)-pyrrolidin-3-yloxy]-2,3-dihydro-pyrido[3,4-b][1,4]oxazin-1-yl}-2-methoxy-nicotinonitrile], for which the IC50 was determined as 24 nM at PI3K delta and 704 nM against PI3K alpha.

As for `COc1ncc(N2CCOc3ccc(O[C@@H]4CCN(C(=O)C5CCOCC5)C4)cc32)cc1C#N` [Example C2, 2-Methoxy-5-{6-[(R)-1-(tetrahydro-pyran-4-carbonyl)-pyrrolidin-3-yloxy]-2,3-dihydro-benzo[1,4]oxazin-4-yl}-nicotinonitrile], the IC50 against PI3K delta was determined as 243 nM; on PI3K alpha it was 1220 nM.

Regarding `COc1ncc(N2CCOc3ccc(O[C@H]4CCN(C(=O)c5cc[nH]c(=O)c5)C4)cc32)cc1C` [Example B91, 4-{(S)-3-[4-(6-Methoxy-5-methyl-pyridin-3-yl)-3,4-dihydro-2H-benzo[1,4]oxazin-6-yloxy]-pyrrolidine-1-carbonyl}-1H-pyridin-2-one], the values for the IC50 against PI3K delta and on PI3K alpha were 12 nM and 353 nM, respectively.

For `Cc1cc(N2CCOc3ccc(O[C@H]4CCN(C(=O)Cc5ccncc5)C4)cc32)cnc1S(C)(=O)=O` [Example B68, 1-{(S)-3-[4-(6-Methanesulfonyl-5-methyl-pyridin-3-yl)-3,4-dihydro-2H-benzo[1,4]oxazin-6-yloxy]-pyrrolidin-1-yl}-2-pyridin-4-yl-ethanone], the figures for the IC50 on PI3K delta and on PI3K alpha were 39 nM and 840 nM, respectively.

With `Cc1cc(N2CCOc3ccc(O[C@H]4CCN(C(=O)c5cnco5)C4)cc32)cnc1S(C)(=O)=O` [Example B25, {(S)-3-[4-(6-Methanesulfonyl-5-methyl-pyridin-3-yl)-3,4-dihydro-2H-benzo[1,4]oxazin-6-yloxy]-pyrrolidin-1-yl}-oxazol-5-yl-methanone], the IC50 stood at 40 nM against PI3K delta and 665 nM at PI3K alpha.

For `COc1ncc(N2CCOc3ccc(O[C@H]4CCN(C(=O)C5CCOC5)C4)cc32)cc1C` (stereo partly drawn) [Example B16, {(S)-3-[4-(6-Methoxy-5-methyl-pyridin-3-yl)-3,4-dihydro-2H-benzo[1,4]oxazin-6-yloxy]-pyrrolidin-1-yl}-(tetrahydro-furan-3-yl)-methanone], the IC50 at PI3K delta is 37 nM; on PI3K alpha, 4120 nM.

As to `N#Cc1cncc(N2CCOc3ccc(O[C@H]4CCN(C(=O)C5CCOCC5)C4)cc32)c1` [Example A7, 5-{6-[(S)-1-(Tetrahydro-pyran-4-carbonyl)-pyrrolidin-3-yloxy]-2,3-dihydro-benzo[1,4]oxazin-4-yl}-nicotinonitrile], the results for the IC50 against PI3K delta and at PI3K alpha were 31 nM and 1920 nM, respectively.

For `COc1ncc(N2CCOc3ccc(O[C@H]4CCN(C(=O)[C@H]5CCN(C(C)=O)C5)C4)cc32)cc1C#N` [J, 5-{6-[(S)-1-((S)-1-Acetyl-pyrrolidine-3-carbonyl)-pyrrolidin-3-yloxy]-2,3-dihydro-benzo[1,4]-oxazin-4-yl}-2-methoxy-nicotinonitrile], the IC50 is 65 nM against PI3K delta and 998 nM against PI3K alpha.

For the origin of these results see US9539260B2, “Dihydro-benzo-oxazine and dihydro-pyrido-oxazine derivatives” (Novartis AG, priority 2012, dated 2017).
